Laboratory results: patent US20230312587A1, “PTERIDINONE COMPOUNDS AND USES THEREOF” (Vertex Pharmaceutical Incorporated, priority 2018, published 2023)
pIC50: −log10 of the molar value. Read-outs that look alike come from different tables or passages of the source.

Key:
[1] = tested on: Colo205-TCF/LEF-Luciferase (Luc) tumor; assay: In vivo inhibition of TCF/LEF reporter activity in Colo-205 tumors; parameters: concentration or dose not given beside the values; conditions: TCF/LEF luciferase reporter in Colo-205 tumors, nu/nu mice, oral gavage
Method: Colo205-TCF/LEF-Luciferase (Luc) tumor cells were expanded in complete DMEM cell culture media [DMEM (Life Technologies, product #11960-051) media supplemented with 10% FBS (Hyclone, catalog #SH30071.03), antimycotic/antibiotic (Life Technologies, product #15240-062), and Glutamax (Life Technologies, product #35050-061)] with 1 ug/ml puromycin. After reaching confluency/high density, the loosely attached cells in media were transferred from the flask to 50 ml conical tubes. Tumor cells adhered to plastic were detached with trypsin and combined with cells in the conical tubes. The tumor cells were triturated, counted, and pelleted by centrifugation. Cell pellets were resuspended in 0.9% injectable saline (6×10^7 cells/ml). A 50 ul volume (3×10^6 cells) was injected subcutaneously in the flanks of 4-6 wk old female nu/nu mice (Charles River Laboratories). Approximately 13-16 days after implantation, tumors between 200-500 mm^3 were selected (based on caliper measurements and applying the formula […]) and randomized into groups of n=4. Mice were dosed by oral gavage with compound dissolved in 1:3:5:1 EtOH:DMSO:PEG-400:H2O at a rate of 10 ml/kg or 1:3:5:1 EtOH:DMSO:PEG-400:H2O alone (Vehicle Control). Tumors were collected from mice euthanized by CO2 inhalation and snap frozen in liquid nitrogen. Tumors were stored in a −80 degrees C. freezer until they were processed.
Tumors were thawed on ice and homogenized in cold Lysis Buffer (20 mM Tris-HCl (pH 7.5), 150 mM NaCl, 1 mM Na2EDTA, 1 mM EGTA, 1% Triton, 2.5 mM sodium pyrophosphate, 1 mM beta-glycerophosphate, 1 mM Na3VO4, 1 μg/ml leupeptin, 0.05% SDS) using a closed tissue grinder system (Fisher Scientific, Cat #02-542-09) on ice according to manufacturer's instructions. For 100 mg of tumor, 500 uL of Lysis Buffer was used. Tumor lysate was transferred to a pre-chilled microcentrifuge tube and centrifuged at 10,000×g for 10 minutes at 4 degrees C. Supernatant was transferred to a new pre-chilled microcentrifuge tube and was used immediately for analysis of protein content and luciferase activity.
Protein content of tumor lysate supernatant was determined using the BCA assay (Life Technologies Cat #23225). Luciferase activity of tumor lysate supernatant was determined by addition of Steady-Glo luminescence reagent (Promega, Cat #E2550) according to manufacturer's instructions and measurement on a Pherastar luminescence plate reader (BMG Labtech). Luciferase activity was normalized to protein content.

[2] = tested on: β-catenin-TCF-mediated reporter transcription activity in Colo 205 cells; assay: Colo 205 reporter assay (TCF/LEF luciferase); type: cell-based; conditions: Colo 205 TCF/LEF luciferase reporter, five hours after addition of compound, read-out: TCF reporter Colo205 IC50
Procedure, shortened: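 Luciferase signal from a TCF/LEF-driven reporter, stably integrated in Colo 205 colon cancer cells, was measured 5 h after compound addition.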

Row | Compound | pIC50 ([2]; Homo sapiens, COLO 205, 5 h) | pIC50 [2] | Percent Remaining Activity at 8 hrs after Dosing [1] [%]
1 | Cc1nc(NC2CN(C(=O)c3ccc(C(F)(F)F)nc3)C2)nc2c1NC(=O)[C@H](C(C)C)N2C [Compound 545, (S)-7-isopropyl-4,8-dimethyl-2-((1-(6-(trifluoromethyl)nicotinoyl)azetidin-3-yl)amino)-7,8-dihydropteridin-6(5H)-one] | 6.00 to 6.52 |  | 51
2 | Cc1nc(N[C@H]2C[C@@H](Nc3cnc(C#N)cn3)C2)nc2c1NC(=O)[C@H](C(C)C)N2C [Compound 602, 5-((cis-3-(((S)-7-isopropyl-4,8-dimethyl-6-oxo-5,6,7,8-tetrahydropteridin-2-yl)amino)cyclobutyl)amino)pyrazine-2-carbonitrile] | 6.00 to 6.52 |  | 57
3 | (S)-7-ethyl-2-(((1-((2-isopropyloxazol-5-yl)methyl)-1H-pyrazol-4-yl)methyl)amino)-4,8-dimethyl-7,8-dihydropteridin-6(5H)-one [Compound 513] |  | > 6.52 | 90
4 | Cc1nc(NCc2cnn(Cc3ccc(C(F)(F)F)nc3)c2)nc2c1N(C)C(=O)[C@H](CCO)N2C [Compound 443, (7S)-7-(2-hydroxyethyl)-4,5,8-trimethyl-2-(((1-((6-(trifluoromethyl)pyridin-3-yl)methyl)-1H-pyrazol-4-yl)methyl)amino)-7,8-dihydropteridin-6(5H)-one] | 6.00 to 6.52 |  | 100
5 | Cc1nc(NCc2cnn(Cc3ccc(F)cc3C#N)c2)nc2c1N(C)C(=O)[C@H](C)N2C [Compound 63, (7S)-5-fluoro-2-((4-(((4,5,7,8-tetramethyl-6-oxo-5,6,7,8-tetrahydropteridin-2-yl)amino)methyl)-1H-pyrazol-1-yl)methyl)benzonitrile] | > 6.52 |  | 9
6 | Cc1nc(NCc2cnn(Cc3ccc(F)nc3)c2)nc2c1NC(=O)[C@H](C(C)(C)C)N2C [Compound 437, (7S)-7-(tert-butyl)-2-(((1-((6-fluoropyridin-3-yl)methyl)-1H-pyrazol-4-yl)methyl)amino)-4,8-dimethyl-7,8-dihydropteridin-6(5H)-one] | > 6.52 |  | 20
7 | Cc1nc(NCc2cnn(Cc3cnc(C(C)C)o3)c2)nc2c1NC(=O)[C@H](C(C)C)N2C [Compound 517, (S)-7-isopropyl-2-(((1-((2-isopropyloxazol-5-yl)methyl)-1H-pyrazol-4-yl)methyl)amino)-4,8-dimethyl-7,8-dihydropteridin-6(5H)-one] | > 6.52 |  | 93
8 | COc1c(F)cc(Cn2cc(CNc3nc(C)c4c(n3)N(C)[C@@H](C(C)C)C(=O)N4)cn2)cc1F [Compound 450, (S)-2-(((1-(3,5-difluoro-4-methoxybenzyl)-1H-pyrazol-4-yl)methyl)amino)-7-isopropyl-4,8-dimethyl-7,8-dihydropteridin-6(5H)-one] | > 6.52 |  | 32
9 | Cc1nc(NCc2cnn(Cc3ccc(C#N)nc3)c2)nc2c1NC(=O)[C@H](C(C)C)N2C [Compound 431, (7S)-5-((4-(((7-isopropyl-4,8-dimethyl-6-oxo-5,6,7,8-tetrahydropteridin-2-yl)amino)methyl)-1H-pyrazol-1-yl)methyl)picolinonitrile] | > 6.52 |  | 29
10 | Cc1nc(NCc2cnn(Cc3ccc(C(F)F)nc3)c2)nc2c1NC(=O)[C@H](C(C)C)N2C [Compound 500, (S)-2-(((1-((6-(difluoromethyl)pyridin-3-yl)methyl)-1H-pyrazol-4-yl)methyl)amino)-7-isopropyl-4,8-dimethyl-7,8-dihydropteridin-6(5H)-one] | > 6.52 |  | 43
11 | CO[C@H](C)[C@H]1C(=O)Nc2c(C)nc(NCc3cnn(Cc4cc(C(F)(F)F)nn4C)c3)nc2N1C [Compound 656, (S)-7-((R)-1-methoxyethyl)-4,8-dimethyl-2-(((1-((1-methyl-3-(trifluoromethyl)-1H-pyrazol-5-yl)methyl)-1H-pyrazol-4-yl)methyl)amino)-7,8-dihydropteridin-6(511)-one] |  | > 6.52 | 51
12 | CO[C@H](C)[C@H]1C(=O)Nc2c(C)nc(NCc3cnn(Cc4ccc(OC(F)(F)F)nc4)c3)nc2N1C [Compound 565, (S)-7-((R)-1-methoxyethyl)-4,8-dimethyl-2-(((1-((6-(trifluoromethoxy)pyridin-3-yl)methyl)-1H-pyrazol-4-yl)methyl)amino)-7,8-dihydropteridin-6(5H)-one] | > 6.52 |  | 68

Continued, in another order:

Row | pIC50 ([2]; Homo sapiens, COLO 205, 5 h) | pIC50 [2] | Compound | Percent Remaining Activity at 8 hrs after Dosing [1] [%]
13 | > 6.52 |  | Cc1nc(N[C@H]2C[C@@H](Nc3cnc(C(F)(F)F)cn3)C2)nc2c1NC(=O)[C@H](C)N2C [Compound 578, (S)-4,7,8-trimethyl-2-((cis-3-((5-(trifluoromethyl)pyrazin-2-yl)amino)cyclobutyl)amino)-7,8-dihydropteridin-6(5H)-one] | 47
14 | > 6.52 |  | Cc1nc(NCc2cnn(Cc3cnc(Cl)s3)c2)nc2c1NC(=O)[C@H](C(C)C)N2C [Compound 491, (S)-2-(((1-((2-chlorothiazol-5-yl)methyl)-1H-pyrazol-4-yl)methyl)amino)-7-isopropyl-4,8-dimethyl-7,8-dihydropteridin-6(5H)-one] | 41
15 | > 6.52 |  | COCC[C@H]1C(=O)Nc2c(C)nc(NCc3cnn(Cc4ccc(C(F)(F)F)nc4)c3)nc2N1C [Compound 589, (S)-7-(2-methoxyethyl)-4,8-dimethyl-2-(((1-((6-(trifluoromethyl)pyridin-3-yl)methyl)-1H-pyrazol-4-yl)methyl)amino)-7,8-dihydropteridin-6(5H)-one] | 94
16 | > 6.52 |  | Cc1nc(NCc2cnn(Cc3ccnc(C(F)(F)F)c3)c2)nc2c1NC(=O)[C@H](C(C)C)N2C [Compound 447, (S)-7-isopropyl-4,8-dimethyl-2-(((1-((2-(trifluoromethyl)pyridin-4-yl)methyl)-1H-pyrazol-4-yl)methyl)amino)-7,8-dihydropteridin-6(5H)-one] | 76
17 | > 6.52 |  | Cc1nc(NCc2cnn(Cc3ccc(OC(C)C)nc3)c2)nc2c1NC(=O)[C@H](C)N2C [Compound 135, (7S)-2-(((1-((6-isopropoxypyridin-3-yl)methyl)-1H-pyrazol-4-yl)methyl)amino)-4,7,8-trimethyl-7,8-dihydropteridin-6(5H)-one] | 43
18 | > 6.52 |  | COc1c(F)cc(C(=O)N2CC(Nc3nc(C)c4c(n3)N(C)[C@@H](C(C)C)C(=O)N4)C2)cc1F [Compound 542, (S)-2-((1-(3,5-difluoro-4-methoxybenzoyl)azetidin-3-yl)amino)-7-isopropyl-4,8-dimethyl-7,8-dihydropteridin-6(5H)-one] | 22
19 | > 6.52 |  | Cc1nc(N[C@H]2C[C@@H](Nc3cc(C(F)(F)F)ncn3)C2)nc2c1NC(=O)[C@H](C(C)C)N2C [Compound 528, (S)-7-isopropyl-4,8-dimethyl-2-((cis-3-((6-(trifluoromethyl)pyrimidin-4-yl)amino)cyclobutyl)amino)-7,8-dihydropteridin-6(5H)-one] | 28
